# Assays:
# [1] = system: Influenza A/WSN/33 virus (H1N1); assay: microbe, parasite or virus in culture; type: cell-based
SMILES,"production of infectious influenza virus particles (virus titer, plaque assay) [1]",influenza viral protein expression (influenza virus),"influenza viral protein expression (NP, NS1, NS2, M1, M2) (influenza virus)"
"CCCCCCCCCCCCC/C=C/[C@@H](O)[C@H](CO)N(C)C [DMS, D-erythro-N,N-dimethylsphingosine]",suppressed the production of infectious influenza virus particles,inhibition was also observed,inhibited influenza viral protein expression
"Oc1ccc(Nc2nc(-c3ccc(Cl)cc3)cs2)cc1 [SKI-II, 4-[4-(4-Chloro-phenyl)-thiazol-2-ylamino]-phenol]",suppressed the production of infectious influenza virus particles,inhibition was also observed,inhibited influenza viral protein expression

# Reference: patent US9687477B2 (priority 2011, dated 2017)
